Patent US20110038997A1, “Method of processing poultry and other meat to reduce or eliminate Salmonella” (Birko Corporation, priority 2007, published 2011)

Experiments:
Type in all cases: cell-based
[1] = tested on: Salmonella culture (M61); experiment: Log kill of Salmonella M61 in suspension, acid treatment, quench and plating on Salmonella Shigella agar
Procedure: In each instance a target sample was employed using approximately 50 micro liters of a Salmonella culture (given the name “M61”) derived from a sample of chicken meal contaminated with chicken feces and approximately 1.5×10^7 cells per ml. […] The results obtained were consistent with the genus Salmonella.
(§1) The tests were performed at room temperature, e.g., 71 deg. […] The reaction was permitted to proceed for the time indicated for each test in Table 1, and was terminated by the introduction of a quench buffer comprising 4.2 M potassium phosphate buffer, pH 7.2. […] The plating medium was Salmonella Shigella agar, […]. The reduction in the bacteria count is expressed as the “log kill.” “Log kill” is generally defined as log10[initial cfu/ml]−log10[remaining cfu/ml].
An experiment was performed using the same protocol as in Example 1, except that the duration of treatment with the antimicrobial agent was maintained constant at 20 seconds. […] All tests were conducted at an ambient temperature of approximately 71 deg. F.
An experiment was performed using the same protocol as in Example 3. In this case, the target organism was a sample of “M61” Salmonella.

[2] = tested on: Salmonella enterica ATCC 14028; experiment: Log kill of Salmonella enterica ATCC 14028 in suspension, plating on tryptic soy agar; conditions: for Log Kill Salmonella (ATCC 14028) / Relative Kill Salmonella (ATCC 14028): 15 seconds
Procedure: as §1
Similar tests were performed using Salmonella enterica ATCC 14028 instead of the M61 Salmonella, and tryptic soy agar was employed instead of Salmonella Shigella agar.
The same tests were repeated using Salmonella enterica ATCC 14028 instead of the M61 Salmonella, and tryptic soy agar was employed instead of Salmonella Shigella agar.
The same tests were repeated using Salmonella enterica ATCC 14028 instead of Salmonella M61, and tryptic soy agar was employed instead of Salmonella shigella.
Another series of tests were performed as those resulting in Table VB, except that the acids were present in a total amount of 2%.

[3] = tested on: Escherichia coli (SAC-2); experiment: Log kill of E. coli SAC-2 by lactic/citric acid mixtures; conditions: 2.5% acid, total; 15 seconds, 76 deg F
Procedure: (§2) The tests were performed at room temperature, e.g., 71 deg. F. A reaction mixture was prepared including the Salmonella, water and the aqueous solution of lactic acid. The reaction was permitted to proceed for the time indicated for each test in Table 1, and was terminated by the introduction of a quench buffer comprising 4.2 M potassium phosphate buffer, pH 7.2. The results of the test were evaluated using a series of 10-fold dilutions as needed to determine, on a standard plating agar, the titer of bacteria that survived the antimicrobial treatment. The plating medium was Salmonella Shigella agar, a medium that would allow the growth of most bacteria. The reduction in the bacteria count is expressed as the “log kill.” “Log kill” is generally defined as log10[initial cfu/ml]−log10[remaining cfu/ml].
An experiment was performed using the same protocol as in Example 1. In this case, the target bacteria was a sample of E. coli (given the name “SAC-2”) taken from a local sewer facility. The isolate was characterized using standard microbiological methods including selective and indicative culture media and other metabolic tests. The results obtained were consistent with E. coli.
(§3) The duration of treatment was 15 seconds at an ambient temperature of 76 deg F.

[4] = tested on: Escherichia coli (ATCC 12435); experiment: Log kill of E. coli ATCC 12435 by lactic/citric acid mixtures; conditions: 2.5% acid, total; 15 seconds, 76 deg F
Procedure: as §2, §3
The same tests were repeated using E. coli ATCC 12435 instead of the SAC-2 E. coli, and tryptic soy agar was employed instead of Salmonella Shigella agar.

| SMILES | Salmonella (M61) Log Kill ([1]; 2.5 wt % aqueous solution, 80 sec., room temperature 71 deg. F) [log kill] | performance compared to that of lactic acid, Salmonella M61 log kill ([1]; 2.5 wt. % solution, 80 seconds) | Log Kill Salmonella (ATCC 14028) ([2]; 2.0% total acid) | Relative Kill Salmonella (ATCC 14028) ([2]; 2.0% total acid, 40/40 = 1) | Citric Acid Efficacy Log kill (75 F., 20 sec) ([2]; 2.5 % citric acid, Salmonella ATCC 14028, 75 F., 20 sec) | Salmonella (ATCC 14028) Log Kill ([2]; 2.5 wt % aqueous solution, 15 sec.) [log kill] | Log Kill Salmonella (ATCC 14028) ([2]; […] total acid) | Relative Kill Salmonella (ATCC 14028) ([2]; […] total acid, 80/0 = 1) | Log Kill Escherichia coli (SAC-2) [3] | Log Kill Escherichia coli (ATCC 12435) [4] |
| --- | --- | --- | --- | --- | --- | --- | --- | --- | --- | --- |
| O=C(O)CC(O)(CC(=O)O)C(=O)O [citric acid] | 0.29 | poor | 0.444 | 0.663 | 0.555 | 0.56 | 0.322 | 0.422 |  |  |
| CC(O)C(=O)O (stereo not shown) [lactic acid] |  |  |  |  |  |  |  |  | 0.953 | 1.93 |
